Columns and labels:
lipoamide = compound: NC(=O)CCCCC1CCSS1 [lipoamide]; test: thermal stability z-score vs DMSO; higher = more thermally stabilized by treatment; conditions: HeLa, lipoamide concentration 100 µM
Procedure: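 Cellular thermal proteome profiling in HeLa cells. Cells were treated with 100 µM lipoamide for 1 h, with or without 1 mM arsenate for a further 1 h, then heated to ten temperatures (37-66.3 °C), and soluble protein was quantified by TMT mass spectrometry relative to 0.1% DMSO controls. The thermal stability score (sum of log2 fold changes minus the abundance score) was transformed to a z-score; mean of n = 3 experiments.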

potassium arsenate = compound: O=[As]([O-])(O)O.[K+] [potassium arsenate]; test: as above; conditions: HeLa; arsenate concentration 1 mM
Procedure: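 Cellular thermal proteome profiling in HeLa cells treated with 1 mM arsenate for 1 h (DMSO pretreatment), heated to ten temperatures (37-66.3 °C). Soluble protein was quantified by TMT mass spectrometry relative to DMSO controls; the thermal stability score was transformed to a z-score; mean of n = 3 experiments.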

[1] = arsenate co-treatment: 1 mM arsenate 1 h
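Further: each temperature applied for 3 min, abundance score taken as mean log2 fold change at the two lowest temperatures, z-score obtained by mean subtraction and division by SD.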

Chain of UniProt Q96GA7 (Q96GA7 whole entry): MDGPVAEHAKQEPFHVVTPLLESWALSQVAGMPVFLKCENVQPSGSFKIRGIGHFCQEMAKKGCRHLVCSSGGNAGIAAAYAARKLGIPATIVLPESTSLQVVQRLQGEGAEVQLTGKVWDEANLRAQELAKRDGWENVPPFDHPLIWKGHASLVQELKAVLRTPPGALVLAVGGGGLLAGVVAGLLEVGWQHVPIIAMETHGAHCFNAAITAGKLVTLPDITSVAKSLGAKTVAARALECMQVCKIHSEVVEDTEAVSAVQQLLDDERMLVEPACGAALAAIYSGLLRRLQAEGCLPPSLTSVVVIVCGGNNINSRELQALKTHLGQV
Chain of UniProt Q99442 (Q99442 whole entry): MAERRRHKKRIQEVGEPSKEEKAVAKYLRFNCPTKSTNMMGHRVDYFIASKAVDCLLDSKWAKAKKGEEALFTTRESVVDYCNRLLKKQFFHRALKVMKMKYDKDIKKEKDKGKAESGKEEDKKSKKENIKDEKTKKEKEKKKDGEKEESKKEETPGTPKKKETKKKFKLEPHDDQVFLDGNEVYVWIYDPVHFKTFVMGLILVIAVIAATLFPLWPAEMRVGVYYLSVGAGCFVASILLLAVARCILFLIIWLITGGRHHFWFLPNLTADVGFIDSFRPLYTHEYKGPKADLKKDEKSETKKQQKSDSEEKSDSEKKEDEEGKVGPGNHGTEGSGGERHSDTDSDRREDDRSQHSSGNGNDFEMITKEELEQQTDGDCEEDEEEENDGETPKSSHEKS
Chain of UniProt Q9Y6D0 (Q9Y6D0 whole entry): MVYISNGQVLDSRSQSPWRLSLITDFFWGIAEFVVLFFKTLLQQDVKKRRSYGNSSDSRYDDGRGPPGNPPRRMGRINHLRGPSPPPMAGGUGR
Chain of UniProt Q15436 (Q15436 whole entry): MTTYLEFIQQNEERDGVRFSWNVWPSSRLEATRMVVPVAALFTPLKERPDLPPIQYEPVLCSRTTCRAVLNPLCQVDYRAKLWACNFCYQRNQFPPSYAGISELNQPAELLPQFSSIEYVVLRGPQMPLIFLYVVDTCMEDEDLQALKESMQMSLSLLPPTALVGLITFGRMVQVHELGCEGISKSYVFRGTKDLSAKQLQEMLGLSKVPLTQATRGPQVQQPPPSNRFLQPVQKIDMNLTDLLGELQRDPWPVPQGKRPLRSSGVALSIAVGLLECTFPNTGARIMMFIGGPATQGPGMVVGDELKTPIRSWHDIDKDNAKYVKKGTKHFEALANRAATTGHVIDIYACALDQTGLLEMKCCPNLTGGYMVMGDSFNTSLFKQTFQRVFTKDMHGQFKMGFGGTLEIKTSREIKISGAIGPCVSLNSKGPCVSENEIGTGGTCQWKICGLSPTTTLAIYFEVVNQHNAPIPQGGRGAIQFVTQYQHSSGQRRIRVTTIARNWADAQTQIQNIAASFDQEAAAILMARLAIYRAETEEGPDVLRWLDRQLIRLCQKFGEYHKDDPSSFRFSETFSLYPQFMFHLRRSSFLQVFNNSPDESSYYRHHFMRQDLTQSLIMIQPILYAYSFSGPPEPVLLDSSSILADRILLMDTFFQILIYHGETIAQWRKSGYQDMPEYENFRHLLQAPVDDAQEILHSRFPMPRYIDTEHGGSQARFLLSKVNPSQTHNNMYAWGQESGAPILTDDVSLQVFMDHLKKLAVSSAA
Chain of UniProt O94979 (O94979 whole entry): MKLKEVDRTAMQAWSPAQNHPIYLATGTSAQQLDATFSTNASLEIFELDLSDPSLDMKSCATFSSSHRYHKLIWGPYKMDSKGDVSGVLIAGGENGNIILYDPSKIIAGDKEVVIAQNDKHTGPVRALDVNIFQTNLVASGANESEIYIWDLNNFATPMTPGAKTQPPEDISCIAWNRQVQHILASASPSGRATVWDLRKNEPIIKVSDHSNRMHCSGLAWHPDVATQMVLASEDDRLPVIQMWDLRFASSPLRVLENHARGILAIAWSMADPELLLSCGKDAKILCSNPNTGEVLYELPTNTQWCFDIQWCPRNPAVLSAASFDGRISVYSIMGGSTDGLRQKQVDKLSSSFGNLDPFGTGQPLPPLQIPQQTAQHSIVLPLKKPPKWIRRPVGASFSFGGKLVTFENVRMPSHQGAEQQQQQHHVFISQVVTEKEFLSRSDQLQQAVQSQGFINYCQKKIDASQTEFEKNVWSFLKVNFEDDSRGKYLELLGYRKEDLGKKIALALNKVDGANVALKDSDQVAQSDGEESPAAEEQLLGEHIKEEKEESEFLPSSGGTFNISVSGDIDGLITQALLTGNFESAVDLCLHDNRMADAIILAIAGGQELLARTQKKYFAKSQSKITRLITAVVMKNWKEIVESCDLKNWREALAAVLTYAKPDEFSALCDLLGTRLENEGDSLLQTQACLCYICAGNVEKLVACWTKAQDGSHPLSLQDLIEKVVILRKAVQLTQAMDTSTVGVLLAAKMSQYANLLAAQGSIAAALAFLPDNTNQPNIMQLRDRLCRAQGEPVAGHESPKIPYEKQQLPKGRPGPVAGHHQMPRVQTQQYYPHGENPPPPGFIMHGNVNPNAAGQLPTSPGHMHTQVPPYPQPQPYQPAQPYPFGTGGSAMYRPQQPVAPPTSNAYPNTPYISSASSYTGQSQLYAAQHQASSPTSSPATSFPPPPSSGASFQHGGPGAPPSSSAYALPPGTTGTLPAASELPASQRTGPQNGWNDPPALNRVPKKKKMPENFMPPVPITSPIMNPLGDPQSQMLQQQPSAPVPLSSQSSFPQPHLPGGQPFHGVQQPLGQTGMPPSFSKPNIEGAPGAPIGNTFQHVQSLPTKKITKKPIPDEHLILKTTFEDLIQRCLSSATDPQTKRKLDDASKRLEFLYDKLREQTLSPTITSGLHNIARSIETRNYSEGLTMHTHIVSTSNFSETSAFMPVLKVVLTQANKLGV
Chain of UniProt Q9Y3B4 (Q9Y3B4 whole entry): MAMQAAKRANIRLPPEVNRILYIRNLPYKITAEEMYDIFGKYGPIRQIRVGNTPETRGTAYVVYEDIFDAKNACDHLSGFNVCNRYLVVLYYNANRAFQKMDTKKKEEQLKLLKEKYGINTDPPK
Chain of UniProt Q12874 (Q12874 whole entry): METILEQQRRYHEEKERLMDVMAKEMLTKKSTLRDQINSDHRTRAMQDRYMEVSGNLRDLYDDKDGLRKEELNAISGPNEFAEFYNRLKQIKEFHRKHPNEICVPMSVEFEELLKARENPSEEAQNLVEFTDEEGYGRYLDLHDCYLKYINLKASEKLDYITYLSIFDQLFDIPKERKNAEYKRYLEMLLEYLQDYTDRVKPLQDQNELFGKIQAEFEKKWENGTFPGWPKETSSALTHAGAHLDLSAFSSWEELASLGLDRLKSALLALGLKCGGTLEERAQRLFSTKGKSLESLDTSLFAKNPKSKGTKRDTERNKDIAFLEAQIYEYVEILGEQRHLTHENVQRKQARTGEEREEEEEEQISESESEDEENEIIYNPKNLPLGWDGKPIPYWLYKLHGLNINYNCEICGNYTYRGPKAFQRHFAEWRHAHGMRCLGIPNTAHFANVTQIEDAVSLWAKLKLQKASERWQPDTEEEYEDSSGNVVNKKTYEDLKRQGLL
Chain of UniProt Q15637 (Q15637 whole entry): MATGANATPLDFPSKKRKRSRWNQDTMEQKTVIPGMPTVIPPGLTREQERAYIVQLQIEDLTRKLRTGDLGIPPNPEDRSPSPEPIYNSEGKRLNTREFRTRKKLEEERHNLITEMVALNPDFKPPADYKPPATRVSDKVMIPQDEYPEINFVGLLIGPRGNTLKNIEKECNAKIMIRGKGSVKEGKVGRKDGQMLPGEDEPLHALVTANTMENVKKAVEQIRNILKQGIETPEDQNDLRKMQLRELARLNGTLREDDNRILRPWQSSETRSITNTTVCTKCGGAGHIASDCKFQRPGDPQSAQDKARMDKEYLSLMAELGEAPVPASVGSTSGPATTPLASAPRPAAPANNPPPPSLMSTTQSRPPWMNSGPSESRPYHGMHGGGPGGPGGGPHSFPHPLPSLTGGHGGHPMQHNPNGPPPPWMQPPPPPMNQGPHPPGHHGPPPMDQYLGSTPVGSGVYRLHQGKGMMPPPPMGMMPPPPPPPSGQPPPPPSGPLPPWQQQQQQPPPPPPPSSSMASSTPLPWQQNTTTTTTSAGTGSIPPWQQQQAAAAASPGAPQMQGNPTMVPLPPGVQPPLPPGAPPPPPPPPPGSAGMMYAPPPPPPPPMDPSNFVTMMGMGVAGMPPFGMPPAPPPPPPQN
Chain of UniProt P48594 (P48594 whole entry): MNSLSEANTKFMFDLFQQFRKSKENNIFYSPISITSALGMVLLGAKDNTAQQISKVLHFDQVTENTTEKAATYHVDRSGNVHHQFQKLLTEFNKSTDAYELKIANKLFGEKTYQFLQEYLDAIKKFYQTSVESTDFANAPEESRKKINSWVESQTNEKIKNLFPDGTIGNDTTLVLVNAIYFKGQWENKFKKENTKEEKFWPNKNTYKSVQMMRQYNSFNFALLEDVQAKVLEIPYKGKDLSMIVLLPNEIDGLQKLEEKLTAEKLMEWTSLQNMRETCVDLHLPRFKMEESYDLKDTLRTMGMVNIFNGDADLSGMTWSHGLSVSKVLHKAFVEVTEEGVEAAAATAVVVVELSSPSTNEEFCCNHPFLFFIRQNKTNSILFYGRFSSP
Chain of UniProt P36952 (P36952 whole entry): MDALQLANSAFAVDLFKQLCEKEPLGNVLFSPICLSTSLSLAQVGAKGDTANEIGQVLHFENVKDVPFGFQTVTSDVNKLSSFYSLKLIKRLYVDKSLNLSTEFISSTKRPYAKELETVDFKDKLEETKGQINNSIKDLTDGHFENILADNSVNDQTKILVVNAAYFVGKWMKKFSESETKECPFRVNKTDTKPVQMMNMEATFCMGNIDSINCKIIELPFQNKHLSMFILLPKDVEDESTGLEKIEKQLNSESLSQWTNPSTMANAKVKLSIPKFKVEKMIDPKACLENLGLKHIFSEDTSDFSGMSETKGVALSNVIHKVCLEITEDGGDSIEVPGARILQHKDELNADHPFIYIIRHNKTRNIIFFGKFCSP
Chain of UniProt P60468 (P60468 whole entry): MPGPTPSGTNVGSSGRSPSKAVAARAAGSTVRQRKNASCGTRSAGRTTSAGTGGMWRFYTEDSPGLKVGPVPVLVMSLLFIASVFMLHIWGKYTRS

| Target | thermal stability z-score (lipoamide; [1]) | thermal stability z-score (lipoamide; arsenate co-treatment: none) | thermal stability z-score (potassium arsenate) |
| --- | --- | --- | --- |
| SDHA (UniProt P31040) | -0.493 | -0.532 | -1.17 |
| SDHAF3 (UniProt Q9NRP4) | -0.644 | -0.535 | -0.145 |
| SDHAF4 (UniProt Q5VUM1) | 0.0401 | -0.258 | -1.53 |
| SDHB (UniProt P21912) | -0.24 | -0.16 | -0.681 |
| SDR16C5 (UniProt Q8N3Y7) | -0.26 | -0.252 | 0.0129 |
| SDR39U1 (UniProt Q9NRG7) | 0.717 | 0.0552 | 0.471 |
| SDSL (UniProt Q96GA7) | 0.0811 | 1.46 | -0.745 |
| SEC11A (UniProt P67812) | -2.78 | -1.58 | 0.475 |
| SEC11C (UniProt Q9BY50) | -0.973 | -0.842 | 0.222 |
| SEC13 (UniProt P55735) | 0.378 | 0.46 | 0.729 |
| SEC14L1 (UniProt Q92503) | -0.149 | -0.0215 | -0.169 |
| SEC16A (UniProt O15027) | 0.237 | 1.39 | 0.285 |
| SEC22A (UniProt Q96IW7) | 0.0383 | -0.0317 | 0.684 |
| SEC22B (UniProt O75396) | -0.614 | -0.0571 | -0.0449 |
| SEC23A (UniProt Q15436) | -0.106 | 0.228 | -0.0157 |
| SEC23B (UniProt Q15437) | 1.19 | 0.766 | 0.645 |
| SEC23IP (UniProt Q9Y6Y8) | -0.784 | -1.16 | 1.54 |
| SEC24A (UniProt O95486) | -0.232 | -0.0421 | 0.178 |
| SEC24B (UniProt O95487) | -0.766 | -0.328 | 0.116 |
| SEC24C (UniProt P53992) | 0.0998 | 0.0631 | 0.38 |
| SEC24D (UniProt O94855) | 0.087 | -0.238 | -0.578 |
| SEC31A (UniProt O94979) | 0.00351 | -0.104 | 0.497 |
| SEC61A1 (UniProt P61619) | 1.11 | 0.235 | 0.55 |
| SEC61B (UniProt P60468) | 0.911 | 0.44 | 0.265 |

| Target | thermal stability z-score (lipoamide; [1]) | thermal stability z-score (lipoamide; arsenate co-treatment: none) | thermal stability z-score (potassium arsenate) |
| --- | --- | --- | --- |
| SEC62 (UniProt Q99442) | 0.39 | 0.266 | -0.75 |
| SEC63 (UniProt Q9UGP8) | -1.11 | -0.484 | -0.767 |
| SEH1L (UniProt Q96EE3) | 0.886 | 0.611 | 0.803 |
| SEL1L (UniProt Q9UBV2) | -2.16 | -1.76 | 0.614 |
| SELENBP1 (UniProt Q13228) | 0.567 | 0.164 | 0.784 |
| SELK (UniProt Q9Y6D0) | 0.406 | -0.759 | 0.22 |
| SELO (UniProt Q9BVL4) | -0.214 | -0.211 | -0.536 |
| SEMA3B (UniProt Q13214) | -1.02 | -1.61 | 0.997 |
| SEMA3C (UniProt Q99985) | -0.0185 | -0.402 | -0.147 |
| SENP6 (UniProt Q9GZR1) | -0.0511 | -0.0676 | -0.18 |
| SEPHS1 (UniProt P49903) | 0.189 | 0.065 | 0.00514 |
| SERBP1 (UniProt Q8NC51) | 0.533 | 0.5 | -0.0206 |
| SERF1A (UniProt O75920) | -0.0837 | 0.743 | -0.297 |
| SERF2 (UniProt P84101) | 0.715 | 0.165 | -0.113 |
| SERINC1 (UniProt Q9NRX5) | 0.282 | -0.488 | 0.329 |
| SERINC3 (UniProt Q13530) | -0.42 | -0.641 | -0.788 |
| SERPINB1 (UniProt P30740) | 0.391 | 0.191 | 0.23 |
| SERPINB4 (UniProt P48594) | 0.303 | 0.197 | -0.0226 |
| SERPINB5 (UniProt P36952) | 0.571 | 0.206 | 0.0156 |
| SERPINB6 (UniProt P35237) | -0.206 | -0.157 | -1.01 |
| SERPINB8 (UniProt P50452) | 0.899 | 0.458 | -1.08 |
| SERPINH1 (UniProt P50454) | -3.31 | -2.2 | 0.567 |
| SERPINI1 (UniProt Q99574) | -0.495 | 0.0132 | 0.709 |
| SESN2 (UniProt P58004) | -0.134 | 0.162 | -0.132 |

| Target | thermal stability z-score (lipoamide; [1]) | thermal stability z-score (lipoamide; arsenate co-treatment: none) | thermal stability z-score (potassium arsenate) |
| --- | --- | --- | --- |
| SESTD1 (UniProt Q86VW0) | 0.202 | 0.128 | 0.352 |
| SET (UniProt Q01105) | 0.154 | 0.00988 | -0.503 |
| SETD1A (UniProt O15047) | 0.233 | -0.516 | -0.413 |
| SETD3 (UniProt Q86TU7) | -0.479 | -0.251 | 0.0633 |
| SETD7 (UniProt Q8WTS6) | -0.766 | 0.0448 | -0.402 |
| SETDB1 (UniProt Q15047) | -0.239 | -0.253 | -0.254 |
| SETMAR (UniProt Q53H47) | -0.298 | -0.25 | -0.122 |
| SETX (UniProt Q7Z333) | -0.122 | -0.0676 | -0.00223 |
| SEZ6L2 (UniProt Q6UXD5) | 0.143 | 2.4 | 3.82 |
| SF1 (UniProt Q15637) | 0.425 | 0.249 | 0.681 |
| SF3A1 (UniProt Q15459) | -0.152 | 0.106 | -1.3 |
| SF3A2 (UniProt Q15428) | -0.0843 | -0.43 | -0.0497 |
| SF3A3 (UniProt Q12874) | 0.351 | 0.639 | -0.503 |
| SF3B1 (UniProt O75533) | 2.46 | 0.661 | -0.873 |
| SF3B2 (UniProt Q13435) | 0.498 | 0.403 | -0.135 |
| SF3B3 (UniProt Q15393) | 1.49 | 0.828 | -0.681 |
| SF3B4 (UniProt Q15427) | 0.152 | -0.211 | -0.243 |
| SF3B6 (UniProt Q9Y3B4) | -0.787 | -0.165 | -0.667 |
| SFN (UniProt P31947) | 0.524 | 0.0759 | -0.012 |
| SFPQ (UniProt P23246) | 2.47 | 2.22 | 1.15 |
| SFR1 (UniProt Q86XK3) | -0.12 | -0.359 | 0.036 |
| SFXN1 (UniProt Q9H9B4) | 0.607 | 0.214 | 0.0559 |
| SFXN3 (UniProt Q9BWM7) | 0.507 | 0.279 | 0.16 |

Reference: the supplement of paper PMC12463676, “Small-molecule dissolution of stress granules by redox modulation benefits ALS models” (Nature Chemical Biology, 2025)
